Assay results: US10004761B2, “Malodor neutralizing composition” (priority 2016, dated 2018)

How the values were obtained:
[1] = tested on: hyaluronidase Type IV-S, from bovine testes (Hyase); assay: Dische's assay (Method II) of HA degradation by Hyase with inhibitors; format: biochemical
Method: Method II (Dische's assay; detection of uronic acid residues): Assays were performed by following the procedures described in Dische Z. [J. Biol. Chem., 1947, 167, p. 189-198] and Dische and Rothschild [Anal Biochem., 1967, 21(1), p. 125-30]. In these assays, molecules containing the uronic acid residues found in the precipitate formed upon CPC additions, are re-solubilized and products formed by -sulfuric acid hydrolysis of these fragments are detected by a spectrophotometric assay employing carbazole chromagen reagent. In addition, small residues degraded off the HA chains that have not precipitated with the addition of CPC, can be detected by the carbazole assay performed on the solution, so as to detect all of the uronic acid content.
Evaluation of HA degradation by this method was generally performed as follows:
20 μL of a NAC stock solution, and 20 μL of the stock solutions of the other inhibitors were used in the assay.
200 μL of the HA stock solution were placed in each tube, for achieving a 1 mg HA per tube.
Twenty (20) μL of hyase and 20 μL of NAC were combined and incubated for 2 hours. Then 200 μL of HA (1 mg) were added to each tube and the mixture was incubated at room temperature for 24 hours. Thereafter, the tubes were heated for 2 minutes in boiling water bath and 8 mL of doubled distilled water were added to the tubes as preparation for the Dische's assay.
As per Dische's Assay, 100 μL of 3N NaCl and 0.5 mL of 10% CPC (cetylpyridinium chloride) were thereafter added to each tube and the mixture was incubated at 37° C. until flocculation-turbidity (resulting from precipitation of HA+CPC) could be observed. The mixture was centrifuged for 10 minutes at 10,000 g at room temperature, and the supernatant was thereafter separated from the obtained pellet.
The pellet was dissolved in 1 ml of CaCl2, and the obtained solution was incubated at 37° C. until complete dissolution of the pellet is obtained. A 2:1 v/v ethanol/ether mixture (8 ml) was thereafter added, and the mixture was intensively stirred (by vortex) and kept at −20° C. overnight. The obtained pellet was collected following a centrifugation for 10 minutes at 10,000 g. Then, distilled water (1 mL) was added to solubilize the pellet, followed by addition of 0.2 ml Carbazole 1%. The mixture was stirred thoroughly, and concentrated sulfuric acid (6 mL) was thereafter added.
The samples were transferred into tight closed tubes, placed for 10 minutes in a boiling water bath, and was thereafter cooled in ice until it reached room temperature.
The pink-violet color developed by the chromogen was measured using a spectrophotometer at 527 nm.
Ditch assay, as described hereinabove (Method II) was performed while using the following Hyase inhibitors:
The experiment was run at room temperature (23° C.). Hyase and Inhibitors were incubated first for 2 hours prior to the addition of HA. Blank tubes included no substrate (HA) and Control tubes included no enzyme, no inhibitor and HA (200 μL). Tubes 5 and 6 contained HA and Hyase with no inhibitor. Standard Solutions with no enzyme and no inhibitor and HA 50 μL and 10 μL were also tested, for calibration. % HA cleaved denotes the weight percent of HA that was degraded. % HA residue denotes the weight percent of non-degraded HA, and represents the % of Hyase inhibition.

[2] = Solubility of NAC crystals in water; format: physicochemical
Method: The solubility of NAC crystals in water was measured for different NAC concentrations, at different temperatures.

[3] = tested on: chondroitinase ABC; assay: HA gelation consistency (Method III) in the presence of Chondroitinase ABC; format: biochemical, Proteus vulgaris; settings: Table 4: NAC 400 mg dry powder (20% final), HA 2 cc of 1%, Chondroitinase ABC 50 μL, 37° C.; cell wraps: Viscous liquid
Method: Method III (Viscosity of HA): HA at low concentrations (e.g., 1%) in aqueous solution forms a viscous colloidal hydrogel solution, which yields semi-solid gel particles at room temperature and a solid gel at 4° C.
HA degradation was evaluated using Method III, as described hereinabove.
HA state of gelation was studied in the presence of NAC and various HA-degrading enzymes, using the following Stock solutions:
The tested enzyme (50 μL) was placed in a tube, NAC (50 μL of the Stock solution, final concentration of about 3.3%) was added and the mixture was incubated for 2 hours at room temperature (23° C.). Then, 2 ml of HA 1% were added to each tube and tubes were further incubated at room temperature for additional 24 hours.
In a second set of experiments, NAC (50 μL of the Stock solution) was added to a tube containing 2 ml of HA 1%; and the tubes were incubated for 2 hours at room temperature. Then, the HA-degrading enzyme was added and tubes were incubated at room temperature for additional 24 hours. In control tubes 9 and 10 (containing only HA), 50 μL of water were added to achieve the same volume as the other tested tubes.
In another set of experiments, the effect of NAC powder, (at a final concentration of 20%), on HA gelation in the presence of Hyase or Chondroitinase ABC was tested. […]

## CC(=O)N[C@@H](CS)C(=O)O [NAC, N-acetyl L-cysteine]
[1]; 20 μL inhibitor stock incubated 2 h with 20 μL Hyase, then HA 200 μL, room temperature 24 h
  % HA degraded: 0%
[1]; NAC final concentration of the incubate 2%, Tubes 11-12
  inhibition of HA degradation: completely inhibited HA degradation
[1]; derived from Table 1
  % of inhibition of HA degradation: 100%
[1]; represents % of Hyase inhibition, 20 μL inhibitor, 20 μL Hyase, HA 200 μL, room temperature 24 h
  % HA intact (precipitated): 100%
[2]; NAC concentration 10%, at 4° C. (storage)
  Clearance (solubility of NAC crystals in water): Clear
[2]; NAC concentration 10%, at 23° C., room temperature
  Clearance (solubility of NAC crystals in water): Clear
[2]; NAC concentration 10%, at 34-37° C., skin and body temperature
  Clearance (solubility of NAC crystals in water): Clear
[2]; NAC concentration 12%, at 4° C. (storage)
  Clearance (solubility of NAC crystals in water): Clear
[2]; NAC concentration 12%, at 23° C., room temperature
  Clearance (solubility of NAC crystals in water): Clear
[2]; NAC concentration 12%, at 34-37° C., skin and body temperature
  Clearance (solubility of NAC crystals in water): Clear
[2]; NAC concentration 14%, at 4° C. (storage)
  Clearance (solubility of NAC crystals in water): Clear
[2]; NAC concentration 14%, at 23° C., room temperature
  Clearance (solubility of NAC crystals in water): Clear
[2]; NAC concentration 14%, at 34-37° C., skin and body temperature
  Clearance (solubility of NAC crystals in water): Clear
[2]; NAC concentration 16%, at 4° C. (storage), cell wraps: Minimal crystals appearance
  Clearance (solubility of NAC crystals in water): Minimal crystals
[2]; NAC concentration 16%, at 23° C., room temperature
  Clearance (solubility of NAC crystals in water): Clear
[2]; NAC concentration 16%, at 34-37° C., skin and body temperature
  Clearance (solubility of NAC crystals in water): Clear
[2]; NAC concentration 18%, at 4° C. (storage)
  Clearance (solubility of NAC crystals in water): More crystals
[2]; NAC concentration 18%, at 23° C., room temperature, cell wraps: Minimal crystals appearance
  Clearance (solubility of NAC crystals in water): Minimal
[2]; NAC concentration 18%, at 34-37° C., skin and body temperature
  Clearance (solubility of NAC crystals in water): Clear
[2]; NAC concentration 20%, at 4° C. (storage)
  Clearance (solubility of NAC crystals in water): More crystals
[2]; NAC concentration 20%, at 23° C., room temperature
  Clearance (solubility of NAC crystals in water): More crystals
[2]; NAC concentration 20%, at 34-37° C., skin and body temperature
  Clearance (solubility of NAC crystals in water): Clear
[2]; at 23° C. and at lower temperatures
  NAC concentration completely soluble in water: ≤ 15%
[2]; at room temperature, presumed from crystals in the HA gel tubes
  concentration at which NAC solubilization reaches saturation: 20%
[2]; from 34° C. and up
  NAC concentration completely soluble in water: ≥ 20%
[3]
  Consistency: Viscous
